“Also recorded” adds a separate entry of the source.
How the values were obtained:
C57BL/6J mice [1] = test: preclinical mouse vaccination model, four-component vaccine (MUC1-KLH, OVA, GD3-KLH), antibody titers by ELISA; type: in vivo; conditions: 20 and 50 μg doses
Procedure: (§1) Groups of five mice (C57BL/6J, female, 6-8 weeks of age) were vaccinated with a three-component vaccine consisting of MUC1-KLH ([…]) and OVA ([…]), or a four-component vaccine that also included GD3-KLH ([…]). Antigens were co-administered with the adjuvant of interest ([…]) or without adjuvant (no-adjuvant control) in phosphate buffered saline (PBS, […]) via subcutaneous injections on days 0, 7, and 14, followed by a booster on day 65. Mouse sera were collected at day 72 and antibody titers against each antigen were determined by ELISA. Statistical significance of each antibody response compared to the no-adjuvant control was assessed using a two-tailed unpaired Student's t-test with CI=95%. As an initial, general assessment of toxicity, mouse weight loss was monitored on days 0, 1, 2, 3, and 7 after the first vaccination. These animal experiments were conducted as described in MSKCC Institutional Animal Care and Use Committee (IACUC) protocol #97-11-051.
These saponin variants were evaluated with a four-component vaccine comprised of MUC1-KLH, OVA, and the poorly immunogenic glycolipid GD3 (melanoma, neuroblastoma, sarcoma antigen) conjugated to KLH (GD3-KLH) (FIGS. 5B-E; see FIG. 16 for full data with both 20 and 50 μg doses).

C57BL/6J mice [2] = test: antibody subtyping of anti-MUC1 and anti-OVA IgG by class-specific ELISA; type: in vivo, mouse
Description: Production of other mouse IgG subtypes, including IgG2a and IgG3, was low or negligible, as indicated by class-specific ELISA. Toxicity remained drastically lower for all four variants compared to NQS-21 and SQS-21 (FIG. 5f).

[3] = toxicity assessment by mouse weight loss after first vaccination; type: in vivo; conditions: for toxicity assessed by mouse weight loss: three-component vaccine, median percent weight loss
Procedure: as §1

C57BL/6J mice [4] = test: preclinical mouse vaccination model, three-component vaccine (MUC1-KLH, OVA), antibody titers by ELISA; type: in vivo; conditions: for antibody titers (anti-KLH, anti-MUC1, anti-OVA IgG): three-component vaccine MUC1-KLH + OVA, s.c. days 0, 7, 14, booster day 65, sera day 72
Procedure: A radioiodine (^131I) was introduced into the QS-21 saponin scaffold to enable in vivo biodistribution studies. The non-radiolabeled aryl iodide 6 (SQS-0-0-5-18) by acylation of amine 2 (SQS-0-0-5-11) was synthesized (FIG. 1B). Because no in vitro model exists to assess adjuvant activity, biological evaluation of aryl iodide 6 was carried out in a preclinical mouse vaccination model involving a multi-antigen formulation comprised of the immunogenic peptide MUC1 (prostate and breast cancer antigen, non-glycosylated tandem repeat) conjugated to the highly immunogenic KLH carrier protein (MUC1-KLH) and OVA, a reliable immunogen that induces both antibody and T-cell responses in mice. Antibody responses against each of the three antigens, co-administered with the adjuvant of interest, were determined by ELISA.
as §1

[5] = in vivo biodistribution of radioiodinated saponins; design: species or system mouse; conditions: with OVA, 24-96 h
Procedure: The aryl tin saponins (7, 9, 17, S9) were synthesized from the corresponding amine precursors (2, S4, 15, S8) by acylation with N-succinimidyl-4-(trimethylstannyl)benzoate 4 (Et3N, DMF, 21° C., 1-2.5 h). Radiolabeling was achieved by iodination of the aryl tin saponin (20 μg) with [^131I]—NaI and chloramine-T (methanol, 21° C., 1 min), followed by immediate HPLC purification. Solvents were removed by rotary evaporation at 35° C. and the radioiodinated probes were formulated in 0.9% saline for biodistribution studies. Co-elution of the radioiodinated probes with the corresponding cold saponins was used for quality control analysis.
Groups of five mice (naive, C57BL/6J female, 8-10 weeks of age) were injected subcutaneously with the radioiodinated saponin adjuvants of interest (˜[…]), the corresponding non-radiolabeled saponin ([…]), and OVA ([…]) in PBS ([…]). Mice were sacrificed at 24 h, 72 h, and 96 h post-injection. Tissues and organs were harvested and analyzed for distribution of radioactivity normalized to the weight of the organ (% ID/g, percent injected dose per gram). Statistical significance of the difference in recoveries (% ID/g) for the active and attenuated adjuvant was assessed for each tissue or organ using two-tailed unpaired Student's t-test with CI=95%.

mice = test: mouse vaccination with OVA antigen alone (FIG. 7B); type: in vivo; conditions: OVA (20 μg)
Procedure: FIG. 7A: Synthesis of negative control saponin 8 (SQS-0-3-7-18): (i) SOCl2, pyridine, CH2Cl2/DMF, 21° C., 2 h, 91%; (ii) 1. H2 (50 psi), Pd/C (Degussa), THF/EtOH (1:1), 21° C., 24 h; 2. TFA/H2O (4:1), 0° C., 3.3 h, RP-HPLC, 50% (2 steps); (iii) 4, Et3N, DMF, 21° C., 3 h, RP-HPLC, 68%; (iv) 5, Et3N, DMF, 21° C., 2.5 h, RP-HPLC, 53%. FIG. 7B: Biological evaluation of aryl iodide saponin 8 with OVA antigen. Mice were vaccinated with OVA (20 μg) according to the general procedure discussed herein. Median titers represented as red horizontal bars. Statistical significance compared to SQS-21 was assessed using two-tailed unpaired Student's t-test with CI=95%: *=0.01≤p≤0.05 (significant).
Groups of five mice (C57BL/6J, female, 6-8 weeks of age) were vaccinated with a three-component vaccine consisting of MUC1-KLH ([…]) and OVA ([…]), or a four-component vaccine that also included GD3-KLH (5 mg). […] Mouse sera were collected at day 72 and antibody titers against each antigen were determined by ELISA. Statistical significance of each antibody response compared to the no-adjuvant control was assessed using a two-tailed unpaired Student's t-test with CI=95%. As an initial, general assessment of toxicity, mouse weight loss was monitored on days 0, 1, 2, 3, and 7 after the first vaccination. […]

[6] = in vivo; cited from earlier work
[7] = in vivo fluorescence imaging with fluorescein-labeled saponin and OVA-A647; design: species or system mouse; conditions: 24 h post-injection
Procedure: To address this problem, in vivo fluorescence imaging experiments with fluorescein-labeled active adjuvant 3 (SQS-0-0-5-12) and Alexa-647-conjugated OVA (OVA-A647) were conducted.
Whole-body imaging was performed at 24 h post-injection with a Maestro Imaging System. At 24 h post-injection, mice were sacrificed and the left and right lymph nodes were dissected and imaged separately.

[8] = biodistribution of radioiodinated ovalbumin with and without adjuvant 6; type: in vivo, mouse; conditions: presence and absence of active adjuvant 6
Procedure: In a complementary experiment, the biodistribution of [^131I]-OVA in the presence and absence of active adjuvant 6 was examined (FIG. 10). […] Thus, the influence of 6 upon OVA antigen biodistribution could not be assessed effectively and an alternative experimental approach was required.
Radiolabeled ovalbumin was synthesized by treating 20 μg of ovalbumin with [^131I]—NaI and Chloramine-T in methanol. The reaction mixture was diluted with 2 mL phosphate buffered saline (PBS) followed by centrifugal filtration at 2800 rpm for 12 min using a 30 kDa molecular weight cutoff filter. This process was repeated twice and the concentrated compound was then formulated in 1 mL 0.9% saline for biodistribution studies.

For C[C@H]1O[C@@H](OC2C(O)C(NC(=O)CCCCCNC(=O)c3ccc(I)cc3)[C@H](CO)O[C@H]2OC(=O)[C@]23CCC(C)(C)CC2C2=CCC4C5(C)CC[C@H](O)[C@](C)(CO)[C@@H]5CC[C@]4(C)[C@]2(C)CC3O)C(O)C(O)C1O[C@@H]1OCC(O)C(O)C1O (stereo partly shown) [compound 19], the “antibody responses (anti-KLH, anti-MUC1, anti-OVA IgG, anti-GD3 IgM and IgG)” value (C57BL/6J mice [1]) was “antibody titers slightly below those of echinocystic acid derivative 20; also recorded: antibody responses similar to the complete, branched trisaccharide-containing saponin 6” and the “IgG subtypes of anti-MUC1 and anti-OVA antibodies” value (C57BL/6J mice [2]) was “significant bias toward the mouse IgG1 and IgG2b subtype”.

With C[C@H]1O[C@@H](OC2C(O)C(NC(=O)CCCCCNC(=O)c3ccc(I)cc3)[C@H](CO)O[C@H]2OC(=O)C23CCC(C)(C)CC2C2=CCC4C5(C)CC[C@H](O)C(C)(C)[C@@H]5CC[C@]4(C)[C@]2(C)C[C@@H]3O)C(O)C(O)C1O[C@@H]1OCC(O)C(O)C1O (stereo partly shown) [compound 20] the “toxicity (mouse weight loss)” value ([3]; four-component vaccine, one week after first injection) was “dramatically reduced toxicity compared to the natural product”, the “antibody responses (anti-KLH, anti-MUC1, anti-OVA IgG, anti-GD3 IgM and IgG)” value (C57BL/6J mice [1]) was “highest antibody responses to all four antigens; also recorded: immunostimulatory activity generally rivaling that of SQS-21” and the “IgG subtypes of anti-MUC1 and anti-OVA antibodies” value (C57BL/6J mice [2]) was “significant bias toward the mouse IgG1 and IgG2b subtype”.

With C[C@H]1O[C@@H](OC2C(O)C(NC(=O)CCCCCNC(=O)c3ccc(I)cc3)[C@H](CO)O[C@H]2OC(=O)C23CCC(C)(C)CC2C2=CCC4C5(C)CC[C@H](O)[C@](C)(C=O)[C@@H]5CC[C@]4(C)[C@]2(C)CC3)C(O)C(O)C1O[C@@H]1OCC(O)C(O)C1O (stereo partly shown) [compound 21] the “antibody responses (anti-KLH, anti-MUC1, anti-OVA IgG, anti-GD3 IgM and IgG)” value (C57BL/6J mice [1]) was “lower antibody responses in all cases except the anti-GD3 IgG response”.

For C[C@H]1O[C@@H](OC2C(O)C(NC(=O)CCCCCNC(=O)c3ccc(I)cc3)[C@H](CO)O[C@H]2OC(=O)[C@]23CCC(C)(C)CC2C2=CCC4C5(C)CC[C@H](O)C(C)(C)[C@@H]5CC[C@]4(C)[C@]2(C)CC3)C(O)C(O)C1O[C@@H]1OCC(O)C(O)C1O (stereo partly shown) [compound 18], the “toxicity assessed by mouse weight loss” value [3] was “low toxicity” and the “antibody titers (anti-KLH, anti-MUC1, anti-OVA IgG)” value (C57BL/6J mice [4]) was “lower antibody titers against all three antigens compared to the parent quillaic acid derivative 16”.

With C[C@@H]1O[C@@H](O[C@H]2[C@H](OC(=O)[C@]34CCC(C)(C)C[C@H]3C3=CC[C@@H]5[C@@]6(C)CC[C@H](O)[C@@](C)(CO)[C@@H]6CC[C@@]5(C)[C@]3(C)CC4)O[C@H](CO)[C@H](NC(=O)CCCCCNC(=O)c3ccc(I)cc3)[C@@H]2O)[C@H](O)[C@H](O)[C@H]1O[C@@H]1OC[C@@H](O)[C@H](O)[C@H]1O [compound 22] the “antibody responses (anti-KLH, anti-MUC1, anti-OVA IgG, anti-GD3 IgM and IgG)” value (C57BL/6J mice [1]) was “lower antibody responses in all cases except the anti-GD3 IgG response”.

For C[C@@H]1O[C@@H](O[C@H]2[C@H](OC(=O)[C@]34CCC(C)(C)C[C@H]3C3=CC[C@@H]5[C@@]6(C)CC[C@H](O)[C@@](C)(C=O)[C@@H]6CC[C@@]5(C)[C@]3(C)C[C@H]4O)O[C@H](CO)[C@H](NC(=O)CCCCCNC(=O)c3ccc(I)cc3)[C@@H]2O)[C@H](O)[C@H](O)[C@H]1O[C@@H]1OC[C@@H](O)[C@H](O)[C@H]1O [compound 16], the “toxicity assessed by mouse weight loss” value [3] was “much lower toxicity than NQS-21 and SQS-21” and the “KLH and MUC1 antibody responses” value (C57BL/6J mice [4]; three-component vaccine, exception anti-MUC1 titers at lower dose (20 μg)) was “comparable to those of parent aryl iodide 6, NQS-21, and SQS-21”.

With C[C@H]1O[C@@H](OC2C(O)C(NC(=O)CCCCCNC(=O)c3ccc(I)cc3)[C@H](CO)O[C@H]2OC(=O)C23CCC(C)(C)CC2C2=CCC4C5(C)CC[C@H](OC6OC(C(=O)O)[C@@H](O)[C@H](OC7OC[C@@H](O)[C@H](O)[C@@H]7O)[C@@H]6O[C@@H]6OC(CO)C(O)[C@@H](O)[C@@H]6O)[C@](C)(C=O)[C@@H]5CC[C@]4(C)[C@]2(C)C[C@@H]3O)C(O)C(O)C1O[C@@H]1OCC(O)C(O)C1O (stereo partly shown) [compound 6] the “toxicity assessed by mouse weight loss” value [3] was “reduced toxicity compared to QS-21”, the “antibody titers (anti-KLH, anti-MUC1, anti-OVA IgG)” value (C57BL/6J mice [4]) was “antibody titers comparable to both NQS-21” and the “localization and retention at injection site and lymph nodes (conclusion)” value [5] was “localizes to and is retained at the injection site and lymph nodes”.

In the case of CC1(C)CCC2(C(=O)NCCNC(=O)c3ccc(I)cc3)C(C1)C1=CCC3C4(C)CC[C@H](OC5OC(C(=O)O)[C@@H](O)[C@H](OC6OC[C@@H](O)[C@H](O)[C@@H]6O)[C@@H]5OC5OC(CO)[C@H](O)[C@H](O)[C@@H]5O)[C@](C)(C=O)[C@@H]4CC[C@]3(C)[C@]1(C)C[C@@H]2O (stereo partly shown) [compound 8], the “adjuvant activity with OVA antigen” value (mice) is reported as “poor adjuvant activity”.

For C[C@H]1O[C@@H](OC2C(O)C(NC(=O)CCCCCN)[C@H](CO)O[C@H]2OC(=O)C23CCC(C)(C)CC2C2=CCC4C5(C)CC[C@H](OC6OC(C(=O)O)[C@@H](O)[C@H](OC7OC[C@@H](O)[C@H](O)[C@@H]7O)[C@@H]6O[C@@H]6OC(CO)C(O)[C@@H](O)[C@@H]6O)[C@](C)(C=O)[C@@H]5CC[C@]4(C)[C@]2(C)C[C@@H]3O)C(O)C(O)C1O[C@@H]1OCC(O)C(O)C1O (stereo partly shown) [compound 2], the adjuvant activity [6] is listed as “inactive”, the “OVA-A647 at the site of injection when co-injected with the adjuvant” value [7] is listed as “observed at the site of injection” and the “OVA-A647 localization to the nearest draining lymph nodes when co-injected with the adjuvant” value ([7]; dissected lymph nodes) is listed as “increased accumulation of OVA-A647 with 3 but not 2”.

B1: [131I]-OVA: radioiodinated ovalbumin antigen (protein, UniProt P01012 2-386, looked up)
Ovalbumin: GSIGAASMEFCFDVFKELKVHHANENIFYCPIAIMSALAMVYLGAKDSTRTQINKVVRFDKLPGFGDSIEAQCGTSVNVHSSLRDILNQITKPNDVYSFSLASRLYAEERYPILPEYLQCVKELYRGGLEPINFQTAADQARELINSWVESQTNGIIRNVLQPSSVDSQTAMVLVNAIVFKGLWEKAFKDEDTQAMPFRVTEQESKPVQMMYQIGLFRVASMASEKMKILELPFASGTMSMLVLLPDEVSGLEQLESIINFEKLTEWTSSNVMEERKIKVYLPRMKMEEKYNLTSVLMAMGITDVFSSSANLSGISSAESLKISQAVHAAHAEINEAGREVVGSAEAGVDAASVSEEFRADHPFLFCIKHIATNAVLFFGRCVSP
modifications: 131I radiolabel
notes: radioiodinated ovalbumin antigen
For B1, the “thyroid uptake of [131I]-OVA” value [8] was “thyroid uptake was also high”.

Source: US12187755B2, “Minimal saponin analogues, synthesis and use thereof” (MEMORIAL SLOAN-KETTERING CANCER CENTER, priority 2014, dated 2025)
